Source: patent publication US20140356863A1, “METHODS FOR DETERMINING THE SUSCEPTIBILITY OF A VIRUS TO AN ATTACHMENT INHIBITOR” (BRISTOL-MYERS SQUIBB COMPANY, priority 2011, published 2014)

Key:
HIV-1 NL4-3 = experiment: susceptibility of HIV-1 strains to an attachment inhibitor (IC50, inhibition of virus replication); format: cell-based; conditions: Human immunodeficiency virus 1, NL43; HIV-1 laboratory strain NL4-3
Text: (§1) As used herein, “ICn” refers to Inhibitory Concentration. It is the concentration of drug in the patient's blood or in vitro needed to suppress the reproduction of a disease-causing virus (such as HIV) by n %. Thus, “IC50” refers to the concentration of an anti-viral agent at which virus replication is inhibited by 50% of the level observed in the absence of the drug.
(§2) Two laboratory strains of HIV-1 were used in this assay.

HIV-1 RF strain = experiment: as above; format: cell-based; conditions: Human immunodeficiency virus 1; HIV-1 laboratory strain RF
Text: as §1, §2

[1] = test system: HIV-1 NL4-3 binding to sCD4-Fc; experiment: immunoassay: virus capture by sCD4-Fc on protein G beads, quantitated by p24 ELISA; conditions: attachment inhibitor 0.5 uM, 15 min room temperature, FIG. 2
Experimental: (§3) Two laboratory strains of HIV-1 were used in this assay, NL4-3, which is susceptible to the attachment inhibitor, the other is RF, which is insensitive to the action of the attachment inhibitor. The amount of virus present with and without attachment inhibitor (AI) is quantitated by a p24 ELISA.
(§4) Virus stock was diluted to 1×10^4 TCID50 per ml in RPMI media with 10% fetal bovine serum (FBS). The attachment inhibitor (or DMSO) was added to a final concentration of 0.5 uM and the mixture incubated for 15 min at room temperature. Eighty microliters of sCD4-Fc (a recombinant protein containing the gp120 binding domain of CD4 connected to an immunoglobulin […]) at 5Oug/ml was added and incubated for an additional 30 min, with gentle rocking. Twenty microliters of protein G SEPHAROSE® beads (binding capacity of 200 ug IgG) was added and rocked at 4° C. for an additional 60 min. Unbound virus was removed by washing the beads 4 times with excess PBS. Virus captured on the beads was lysed with 0.5% Triton X-100 and the beads removed by centrifugation. The amount of virus present in the supernatant is quantitated by a p24 ELISA, according to the manufacturer's instructions (PerkinElmer NEK-050).

[2] = test system: HIV-1 RF strain binding to sCD4-Fc; experiment: as above; conditions: attachment inhibitor 0.5 uM, 15 min room temperature, FIG. 2
Experimental: as §3, §4

## COc1cnc(-n2cnc(C)n2)c2[nH]cc(C(=O)C(=O)N3CCN(C(=O)c4ccccc4)CC3)c12 [attachment inhibitor, 1-(4-benzoyl-piperazin-1-yl)-2-[4-methoxy-7-(3-methyl-[1,2,4]triazol-1-yl)-1H-pyrralo[2,3-c]pyridine-3-yl]-ethane-1,2-dione]
HIV-1 NL4-3
  IC50: 2.2 ± 0.6 nM
HIV-1 RF strain
  IC50: > 2000 nM
[1]
  amount of virus captured by sCD4-Fc (p24 ELISA) with attachment inhibitor versus DMSO: much less than when DMSO is used
[2]
  amount of virus captured by sCD4-Fc (p24 ELISA) with attachment inhibitor versus DMSO: no significant difference
